Assay results published in patent publication US20260138965A1, “CRYSTALLINE FORMS OF A TYK2 INHIBITOR AND USES THEREOF” (Alumis Inc., priority 2022, published 2026).
Values after ≈ are worked out from the molar mass of the structure shown.

How the values were obtained:
Type in all cases: physicochemical
[1] = Solubility of crystalline Form 1 in organic solvents; conditions: organic solvent or mixture
[2] = Solubility of crystalline Form 1 in aqueous and biorelevant media
[3] = Solid form chemical and physical stability

Q: Which results are given for [2H]C([2H])([2H])CC(=O)c1cnc(NC(=O)C2CC2)cc1Nc1cccc(-c2ncn(C([2H])([2H])[2H])n2)c1OC [Form 1, N-(4-((2-methoxy-3-(1-(methyl-d3)-1H-1,2,4-triazol-3-yl)phenyl)amino)-5-(propanoyl-3,3,3-d3)pyridin-2-yl) cyclopropanecarboxamide]?
A: solubility ([1]; in MeOH): < 3000 µg/mL; solubility ([1]; in MeOH/DCM (1/1)): > 43000 µg/mL; solubility ([1]; in THF): < 17000 µg/mL; solubility ([1]; in acetone): < 3000 µg/mL; solubility ([1]; in acetonitrile): < 1000 µg/mL; solubility ([1]; in ethanol): < 1000 µg/mL; solubility ([1]; in ethyl acetate): < 1000 µg/mL; solubility ([1]; in heptane): < 1000 µg/mL; solubility ([1]; in isopropyl alcohol): < 1000 µg/mL; solubility ([1]; in methyl t-butyl ether): < 1000 µg/mL; solubility ([2]; in FaSSIF): 1 to 2 µg/mL (≈ 2.34 to 4.69 µM); solubility ([2]; in FeSSIF): 30 to 50 µg/mL (≈ 70.3 to 117 µM); solubility ([2]; simulated gastric fluid, in SGF): 3970 to 4280 µg/mL (≈ 9310 to 10000 µM); time chemically and physically stable ([3]; 40° C./75% RH): at least 10 days; time chemically and physically stable ([3]; 60° C.): at least 10 days
